The text below walks through data of patent publication US10239878B2, “Macrocyclic ligands with pendant chelating moieties and complexes thereof” (LUMIPHORE, INC., priority 2016, dated 2019).

The nature of the series: Photophysical characterization of Eu complexes (UV-vis absorption, quantum yield, lifetime). The series is classed as physicochemical. The procedure: The europium complexes of ligands 16, 29, 33, 40, and 43 were prepared by separately dissolving each ligand (2 mg) into methanol (200 μL). Excess europium chloride hexahydrate (˜5 equivalents) was dissolved in methanol (200 μL) and the full volume was added to each of the ligand solutions. The solvent was removed, and the residue was dissolved into DMF (50 μL). The europium complexes were then purified by semi-prep HPLC on an Agilent 1260 Infinity instrument using an Eclipse XDB-C18 column (5 μm, 9.4×250 mm). The mobile phase was 10 to 30% acetonitrile in water containing 0.1% trifluoroacetic acid. The volatiles were removed from the HPLC eluents under vacuum, and the residues were separately dissolved into methanol (500 μL) to give methanolic stock solutions of each europium complex with greater than 98% purity. A few drops of these methanolic solutions were evaporated to dryness, and then the residue was dissolved into TBS buffer at a concentration of ca. 3 μM to make aqueous stock solutions (20 mL) with an absorbance of 0.05 (1 cm path length) at 365 nm. Five dilutions (1/6, 2/6, 3/6, 4/6, and 5/6) were made from these aqueous stock solutions to yield six samples with evenly spaced concentrations (3 mL volume each). Quinine sulfate dissolved in 0.05 M sulfuric acid was similarly diluted to a final absorbance of 0.05 at 365 nm, and this solution was similarly (1/6, 2/6, 3/6, 4/6, and 5/6) diluted to afford six quinine sulfate reference samples of evenly spaced concentration. Quinine sulfate in 0.05 M sulfuric acid was used as the quantum yield standard (Φ=0.508). By measuring the absorbance and luminescence of these dilute solutions, the quantum yields of the new Eu complexes were determined. A 5 cm path-length quartz cell was used to measure the absorbance of these dilute solutions in order to improve the UV-vis signal-to-noise. Steady state photoluminescence measurements were collected in a 1 cm fluorescence cuvette at 365 nm excitation wavelength, 1 nm resolution, 10 nm excitation slit width, 1 nm emission slit width, and 0.2 sec integration time on an instrument that has been described elsewhere (D'Aléo, A.; Moore, E. G.; Szigethy, G.; Xu, J.; Raymond, K. N. Inorg. Chem. 2009, 48, 9316.). Absorption spectra were measured at 1 nm resolution, and the absorbance of each sample was taken as the average absorbance measured from 360-370 nm to reflect the 10 nm excitation slit width used for luminescence measurements. The data derived from these experiments, and from the titration experiments in example 11 are tabulated below.

On to `NCCOCCNC(=O)C1CCCN(C(=O)c2cccc(=O)n2[O-])CCCNC(=O)c2ccc(n([O-])c2=O)C(=O)NC2COCC2NC(=O)c2ccc(c(=O)n2[O-])C(=O)NCCCN1C(=O)c1cccc(=O)n1[O-].[Eu+3]` (mixture of isomers) [43⋅Eu], for which, under “TBS buffer, pH 7.6”, the “ε260/ε at λmax” value is 1.52, the “ε280/ε at λmax” value was determined as 1.20 and the λmax was found to be 358 nm. Also, where the note is “TBS buffer, quinine sulfate as quantum yield standard”, the “Φtotal at 365 nm excitation” value is 28.8%. The same compound came in with a Lifetime (luminescence, HPLC purified Eu complexes) of 734 μs.
